Measurements from paper PMC8512853, “Synthesis, Bioactivity, Pharmacokinetic and Biomimetic Properties of Multi-Substituted Coumarin Derivatives” (Molecules, 2021).

Legend:
[1] = IAM chromatography (IAM.PC.DD.2 column) and estimated human oral absorption; format: in vitro ADME; conditions: for %HOA estimated human oral absorption: Equation (1) from logkw and physicochemical properties; for logkw (IAM retention factor): pH 7.40, IAM.PC.DD.2, intercept at pure aqueous phase
Description: The immobilized artificial membrane (IAM) chromatographic behavior of the 25 novel coumarin derivatives was studied. IAM stationary phases consisting of monolayers of phospholipids (e.g., phosphatidylcholine, PC) immobilized on a propylamine–silica support can simulate interactions of chemicals with cell membranes.
Using an IAM.PC.DD2 column (Regis Technologies) as the stationary phase with PBS as the mobile phase at pH = 7.40, and a flow rate of 3 mL/min in the presence of acetonitrile fractions (C%) of 10%, 15%, 20%, 25%, and 30%, a logkC% value was obtained via the retention time for each concentration of CH3CN. Retention factors were then used to plot logkC% as a function of acetonitrile fraction. The intercept of the linear regression corresponds to the logkw, corresponding to pure aqueous phase.
(1) % HOA=100/1+10^−(2.17+0.88*logkw−0.006*MW−0.83*A−0.53*F^*++1.18*F^*−)
The physicochemical and biomimetic properties of the new coumarin analogues were studied using liquid chromatography (HPLC) in 220–230 nm Two types of chromatographic columns were used: (i) immobilized artificial membrane (IAM) ([…].PC.DD.2, Regis Technologies) column and (ii) human serum albumin (HSA) (CHIRAL PAK) column.
The training set consisted of 25 neutral and slightly acidic compounds. Their IAM retention factors were measured at pH 7.40 on a IAM.PC.DD.2 column. The mobile phase consisted of acetonitrile solvent (CH3CN) in various concentrations (10%, 15%, 20%, 25%, 30%) and a flow rate of 3 mL/min was selected. Their HSA retention factors were measured at pH 7.00 on HSA column. The mobile phase consisted of acetonitrile solvent (CH3CN) in 10% concentration and a flow rate of 1 mL/min was selected.
The different pH values (7.00 for HSA and 7.40 for IAM) were measured with an electronic pH meter MP125 and were achieved by preparing suitable buffers of phosphates and chlorides (0.12 g KH2PO4, 0.72 g Na2HPO4·2H2O, 4.00 g NaCl and 0.10 g KCl). Sodium citrate solution was used to determine the dead time, which was deducted from the results at the end of measurements. The elution time of each coumarin analogue was measured at least three times. Retention times were converted into logk values, which represent the logarithm of the retention indexes, using Equation (8). (8) logk=log(tr−t0/t0) where tr is the retention time of the coumarin derivative and t0 is the dead time.

[2] = ABTS radical scavenging assay; conditions: 6 min
Description: The ABTS radical cation scavenging assay is a decolorization assay frequently used as an antioxidant activity estimation protocol. […] The absorbance is measured at 734 nm and the antioxidant capacity is compared to a standard antioxidant solution, such as ascorbic acid.
For the evaluation of antioxidant activity, the scavenging capacities of all samples were measured via the ABTS assay, as previously described by Kontogiorgis et al. with some modifications. Briefly, an ethanolic standard ABTS solution (7 mM) was prepared by the addition of ABTS salt and potassium persulfate. […] Each sample was diluted in DMSO and tested in triplicate. The tested mixture contained 10–20 µL of sample and 990–980 µL of the ABTS solution, for a total volume of 1 ml. Blank samples contained equal amounts of DMSO instead of the coumarin analogues, and ascorbic acid was used as a reference sample for the final evaluation of the ABTS scavenging capacity. All mixtures were stored at room temperature to allow decolorization and measured after 6 min. The percentage reduction of the ABTS radical was evaluated according to the following Equation (3):(3) % Reduction=Control OD (mean)−Sample OD (mean)/Control OD (mean)×100

[3] = MTT cell viability assay, HaCaT; format: cell-based, human; conditions: human, HaCaT cells, 100 μΜ, 24 h
Source text: The MTT assay (3- [4,5-dimethylthiazol-2-yl] -2,5 diphenyl tetrazole) is based on the conversion of MTT to formazan crystals by living cells, which determines mitochondrial activity. Since for most cell populations total mitochondrial activity is related to the number of viable cells, this assay is widely used to measure the in vitro cytotoxic effects of drugs on various cell lines or primary cells. The principle of the MTT assay is that for most viable cells the mitochondrial activity is stable, and therefore, an increase or decrease in the number of viable cells is linearly related to mitochondrial activity. The mitochondrial activity of the cells is reflected by the conversion of the MTT tetrazole salt to formazan crystals (bright purple), which can be solubilized (in this protocol with DMSO) for homogeneous measurement. Thus, any increase or decrease in the number of viable cells can be detected by measuring the formazan concentration reflected in the optical density (OD) measurement at 540 nm with a reference absorption of 720 nm.
All the compounds were tested for their cytotoxic activity against blank and control samples in the human epidermal keratinocyte line (HaCaT), at the concentration of 100 μΜ, and the results are presented in Table 4.
This protocol was used for the evaluation of cell viability and all the cell lines. It must be noted that this assay describes the count of cells that remain alive after the treatment. For the experimental procedure a standard solution of MTT 1mg/mL in PBS was prepared which after filtration ([…] filter (Millipore, Carrigtwohill, Ireland)) was stored in the dark (4–8 °C) until use. In a 96-well plate, HaCaT, A549 and A375 cells were seeded in a number of 30 × 10^4 cells/well for each evaluation series respectively. The cells were incubated (37 °C, 5% CO2) for 24 h, followed by the addition of the tested analogues (100 μM, diluted in DMEM) and another 24-h incubation. Next, appropriate amount of MTT was added in the tested wells and the plate returned to the incubator for the next 4 h for the formation of the formazan crystals. The formazan crystals were then redissolved by adding DMSO (100 μL) and stirring lightly for 40 min, after which the absorbance was measured in a plate reader at 540 nm with a reference absorbance of 720 nm.
All samples were tested in triplicate, against a control (only cells), blank (no cells), and positive control (100 μM standard silibinin solution was used as a “cell-killing” standard).

| Structure (SMILES) | %HOA estimated human oral absorption [1] | logkw (IAM retention factor) [1] | ABTS^•+ % (100 μΜ) [2] | viability at 24 h, 100 μM [3] |
| --- | --- | --- | --- | --- |
| CC(=O)Oc1cccc2oc(=O)c(-c3ccc(F)cc3)c(C)c12 [Compound 3f, 5-acetyloxy-3-(4-fluorophenyl)-4-methyl-chromen-2-one] | 99.7% | 2.52 | no | 100% |
| Cc1c(-c2ccc(O)cc2)c(=O)oc2ccc(Br)cc12 [Compound 4i, 6-bromo-3-(4-hydroxyphenyl)-4-methyl-chromen-2-one] | 99.9% | 3.23 | no | 100% |
| CC(=O)Oc1ccc(-c2c(C)c3cc(Cl)ccc3oc2=O)cc1OC(C)=O [Compound 3n, 3-(4,5-diacetyloxyphenyl)-6-chloro-4-methyl-chromen-2-one] | 99.7% | 3.04 | no | 100% |
| CC(=O)Oc1cccc2oc(=O)c(-c3cccc(Br)c3)c(C)c12 [Compound 3g, 5-acetyloxy-3-(3-bromophenyl)-4-methyl-chromen-2-one] | 100.0% | 4.77 | 2.8% | 100% |
| CC(=O)Oc1ccc(-c2c(C)c3cc(Br)ccc3oc2=O)cc1 [Compound 3i, 3-(4-acetyloxyphenyl)-6-bromo-4-methyl-chromen-2-one] | 99.8% | 3.28 | no | 100% |
